The values below come from patent publication US11760889B2, “Unsaturated fatty alcohol derivatives from natural oil metathesis” (priority 2012, dated 2023).

Data set [1] in a line: Surfactant phase behavior study (cross-polarized microscopy). In kind it is physicochemical. The conditions noted are these: room temperature (20-22° C.). How it is done:
Phase behavior is observed using an Olympus BH-2 cross-polarized microscope at 100-400× and room temperature (20° C. to 22° C.). The inventive monounsaturated sulfates and ethoxylate sulfates are compared with their saturated analogs, and in some cases, commercial surfactants.
Samples are prepared by diluting the most concentrated product gradually with deionized water. When the surfactant concentration approaches a phase transition, the concentration is varied at 2-4% intervals to estimate the phase boundary. The actives level reported in Table 15 for each phase boundary is within ±5% of the true boundary.
Samples are loaded between a microscope slide and cover glass and are allowed to equilibrate before observation. Microscopic texture is analyzed and used to determine the phase. For some samples, an AR 2000 rheometer (TA Instruments) is used to measure viscosity at 25° C. to further verify phase behavior.

Data set [2] in a line: Water-soluble herbicide formulation testing (standard dilution test, emulsion stability).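 Further: diluted in a 50 mL Nessler cylinder held at 30 °C.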 In kind it is physicochemical. Also noted: key to Emulsion stability, mL separation, 24 h: Tr = trace. The following applies: 342 ppm water. As for the experimental part: Surfactant candidates for water soluble herbicide applications are examined as a replacement for the anionic, nonionic, or anionic/nonionic blend portion and compared to a known industry adjuvant standard for use in paraquat, a water soluble herbicide concentrate formulation. A standard dilution test is conducted whereby the concentrates are diluted in water to determine if solubility is complete.
The cylinder is stoppered and inverted ten times. Solubility is recorded as complete or incomplete. Cylinders are allowed to stand and the amount (in mL) and type of separation are recorded after 30 min., 1 h, 2 h, and 24 h. Results of the solubility testing appear in Table 3 below.
An eight to ten mole alkyl phenol ethoxylate surfactant (0.7 g) is added and vigorously mixed for 30 s. Test sample (0.7 g) is added and mixing resumes for 30 s.
Test sample (0.7 g) is added and vigorously mixed for 30 s. Sodium linear alkylbenzene sulfonate (“NaLAS,” 0.7 g) is added and mixing resumes for 30 s.

Data set [3] is described as follows: Anionic emulsifier: emulsion stability testing of EW concentrate (modified ASTM E1116-98).
Procedure: Turbidity changes are noted and recorded.
A Mohr pipette is used to feed EW concentrate to each cylinder. Cylinders are stoppered and inverted ten times, then allowed to stand for 0.5, 1, and 24 h while recording stability at each time as type and % separation.
Spontaneity is recorded according to the following criteria: (1) poor: very thin emulsion cloud with major separation of oil droplets; (2) fair: thin emulsion cloud with minor separation of oil droplets; (3) good: thin emulsion cloud reaches the bottom of the cylinder without separation of any type; (4) excellent: thick emulsion cloud reaches the bottom of the cylinder without separation of any type.
Data set [4] can be described thus: Emulsion polymerization surfactant screen. As for the experimental part: A reaction kettle is charged with sodium bicarbonate (0.50 g), water (225 g), and seed latex (30 g) and the mixture is heated to and held at 83° C. under nitrogen with stirring at 200 rpm. […] Methyl methacrylate (255 g), butyl acrylate (235 g), and methacrylic acid (10 g) are combined in an Erlenmeyer flask and mixed. […] Separately, two other mixtures are prepared: an initiator shot mixture of ammonium persulfate (1.0 g) in water (20 g), and a cofeed mixture of ammonium persulfate (2.70 g), sodium bicarbonate (1.50 g), and water (75 g); the total amount of initiator used is 0.74% based on monomers. The initiator shot is charged to the 83° C. reaction kettle dropwise over 1 min, then held for 10 min. The monomer emulsion is then fed to the kettle at 2.1 mL/min. for 10 min. The feed rate of the monomer emulsion is increased to 4.2 mL/min., and the cofeed mixture is started at 0.37 mL/min. Total addition time is 3 h, during which particle size and temperature are monitored. After addition of the monomer emulsion is complete, a water wash (50 g) is started, and heating at 83° C. continues for 1 h. The product is cooled. The pH is adjusted to 7.5 with dilute ammonium hydroxide solution. A preservative is added, and the mixture is filtered.

Where [5] appears, read: Adjuvant (anionic/nonionic) test sample.

Read-outs that look alike come from different tables or passages of the source.

As to `C=CCCCCCCCCOS(=O)(=O)O.N` [A10-2], in data set [1], the “Estimated Phase Region: Hexagonal” value is on record as 42-64 % actives, the “Estimated Phase Region: Lamellar” value is reported as 64-80 % actives, the “Estimated Phase Region: Solid/gum/paste” value is listed as 80-100 % actives and the “Estimated Phase Region: Unknown” value is 0-42 % actives. Also, in data set [2] (setting [5]), the “Emulsion stability, mL separation, 1 h” value came out at 0 mL and the “Emulsion stability, mL separation, 24 h” value is reported as 0 mL. In data set [2] (Anionic test sample), the “Emulsion stability, mL separation, 1 h” value is 0 mL and the “Emulsion stability, mL separation, 24 h” value amounted to 0 mL. Moreover, in data set [2] (Nonionic test sample), the “Emulsion stability, mL separation, 1 h” value is given as 0 mL and the “Emulsion stability, mL separation, 24 h” value was “Tr”. Moreover, in data set [3] (34 ppm water), the “% Separation, 1 h” value was found to be 3.8% and the “% Separation, 24 h” value was found to be 4%. In data set [3] (1000 ppm water), the “% Separation, 1 h” value was determined as 3.1% and the “% Separation, 24 h” value is reported as 3.8%.

`CCCCCCCCCCCCOS(=O)(=O)O.N` [sat. analog of A12-2, reference compound]: in data set [1], the “Estimated Phase Region: Hexagonal” value was 31-63 % actives, the “Estimated Phase Region: Isotropic Clear” value is reported as 0-31 % actives, the “Estimated Phase Region: Lamellar” value is 63-74 % actives and the “Estimated Phase Region: Solid/gum/paste” value is reported as 74-100 % actives.

With `CCCCCCCCCCOS(=O)(=O)O.N` [sat. analog of A10-2, reference compound], in data set [1], the “Estimated Phase Region: Hexagonal” value is 42-64 % actives, the “Estimated Phase Region: Lamellar” value is given as 64-80 % actives, the “Estimated Phase Region: Solid/gum/paste” value is recorded as 80-100 % actives and the “Estimated Phase Region: Unknown” value was 0-42 % actives.

For `C=CCCCCCCCCOS(=O)(=O)[O-].[Na+]` [A10-3], in data set [1], the “Estimated Phase Region: Hexagonal” value is recorded as 43-70 % actives, the “Estimated Phase Region: Isotropic Clear” value was 0-43 % actives, the “Estimated Phase Region: Lamellar” value was 70-81 % actives and the “Estimated Phase Region: Solid/gum/paste” value was 81-100 % actives. Further, in data set [2] (setting [5]), the “Emulsion stability, mL separation, 1 h” value turned out to be 0 mL and the “Emulsion stability, mL separation, 24 h” value was 0 mL. For the same compound, in data set [2] (Anionic test sample), the “Emulsion stability, mL separation, 1 h” value is 0 mL and the “Emulsion stability, mL separation, 24 h” value turned out to be 0 mL. Also, in data set [2] (Nonionic test sample), the “Emulsion stability, mL separation, 1 h” value was 0 mL and the “Emulsion stability, mL separation, 24 h” value was “Tr”. In data set [3] (34 ppm water), the “% Separation, 1 h” value worked out at 4% and the “% Separation, 24 h” value was found to be 4%. In addition, in data set [3] (1000 ppm water), the “% Separation, 1 h” value was 3% and the “% Separation, 24 h” value is listed as 3.1%.

Turning to `CCCCCCCCCCCCOCCOCCOCCOS(=O)(=O)[O-].[Na+]` [sat. analog of A12-9, reference compound], in data set [1], the “Estimated Phase Region: Hexagonal” value was 24-60 % actives, the “Estimated Phase Region: Isotropic Clear” value is given as 0-24 % actives, the “Estimated Phase Region: Lamellar” value is on record as 60-78 % actives and the “Estimated Phase Region: Solid/gum/paste” value is on record as 78-100 % actives.

As to `CCCCCCCCCCCCOS(=O)(=O)[O-].[Na+]` [sat. analog of A12-3, reference compound], in data set [1], the “Estimated Phase Region: Isotropic Clear” value is on record as 0-31 % actives and the “Estimated Phase Region: Solid/gum/paste” value is reported as 31-100 % actives.

`CCCCCCCCCCOS(=O)(=O)[O-].[Na+]` [sat. analog of A10-3, reference compound]: in data set [1], the “Estimated Phase Region: Hexagonal” value is recorded as 41-59 % actives, the “Estimated Phase Region: Isotropic Clear” value is 0-41 % actives and the “Estimated Phase Region: Solid/gum/paste” value is 59-100 % actives.

Turning to “3 Mole Ethoxylated C12 Alcohol, Sodium Sulfate [A12-9]”, in data set [1], the “Estimated Phase Region: Cubic” value is 60-68 % actives, the “Estimated Phase Region: Hexagonal” value is reported as 31-60 % actives, the “Estimated Phase Region: Isotropic Clear” value is listed as 0-31 % actives and the “Estimated Phase Region: Lamellar” value is on record as 68-87 % actives. The “Estimated Phase Region: Solid/gum/paste” value in data set [1] is given as 87-100 % actives. Besides, in data set [2] (setting [5]), the “Emulsion stability, mL separation, 1 h” value is given as 0 mL and the “Emulsion stability, mL separation, 24 h” value was 0 mL. Also, in data set [2] (Anionic test sample), the “Emulsion stability, mL separation, 1 h” value is given as 0 mL and the “Emulsion stability, mL separation, 24 h” value is given as 0 mL. In data set [2] (Nonionic test sample), the “Emulsion stability, mL separation, 1 h” value is on record as 0 mL and the “Emulsion stability, mL separation, 24 h” value amounted to 0 mL. For the same compound, in data set [3] (34 ppm water), the “% Separation, 1 h” value is 3.3% and the “% Separation, 24 h” value came out at 4.2%. In addition, in data set [3] (1000 ppm water), the “% Separation, 1 h” value is recorded as 2.1% and the “% Separation, 24 h” value amounted to 3%.

As for C12 Alcohol Ammonium Sulfate [A12-2], in data set [1], the “Estimated Phase Region: Hexagonal” value is 33-70 % actives, the “Estimated Phase Region: Isotropic Clear” value is 0-33 % actives, the “Estimated Phase Region: Lamellar” value is on record as 70-83 % actives and the “Estimated Phase Region: Solid/gum/paste” value is recorded as 83-100 % actives. Besides, in data set [3] (34 ppm water), the “% Separation, 1 h” value is 4% and the “% Separation, 24 h” value was 4.2%. Besides, in data set [3] (1000 ppm water), the “% Separation, 1 h” value came to 2.5% and the “% Separation, 24 h” value was determined as 3.2%.

For “1 Mole Ethoxylated C12 Alcohol, Sodium Sulfate [A12-6]”, the “Emulsion stability, mL separation, 1 h” value in data set [2] (setting [5]), in data set [2] (Anionic test sample) and in data set [2] (Nonionic test sample) was 0 mL throughout. Also, the “Emulsion stability, mL separation, 24 h” value in data set [2] (setting [5]), in data set [2] (Anionic test sample) and in data set [2] (Nonionic test sample) was 0 mL in each case. The “% Separation, 1 h” value in data set [3] (34 ppm water) came to 4.3%; in data set [3] (1000 ppm water), 2.7%. Also, the figures for the “% Separation, 24 h” value in data set [3] (34 ppm water) and in data set [3] (1000 ppm water) were 5.2% and 3.7%, respectively.

“calcium alkylbenzenesulfonate [Control 1]”: in data set [4], the pre-emulsion stability result is on record as “stable”.

Consider C12 Alcohol Sodium Sulfate [A12-3], for which, in data set [1], the “Estimated Phase Region: Hexagonal” value is given as 38-66 % actives, the “Estimated Phase Region: Isotropic Clear” value is reported as 0-38 % actives, the “Estimated Phase Region: Lamellar” value is listed as 66-83 % actives and the “Estimated Phase Region: Solid/gum/paste” value is given as 83-100 % actives. For the same compound, in data set [2] (setting [5]), the “Emulsion stability, mL separation, 1 h” value is on record as 0 mL and the “Emulsion stability, mL separation, 24 h” value is “Tr”. Moreover, in data set [2] (Anionic test sample), the “Emulsion stability, mL separation, 1 h” value was determined as 0 mL and the “Emulsion stability, mL separation, 24 h” value came to 0 mL. Besides, in data set [2] (Nonionic test sample), the “Emulsion stability, mL separation, 1 h” value was 0 mL and the “Emulsion stability, mL separation, 24 h” value is given as “Tr”. For the same compound, in data set [3] (34 ppm water), the “% Separation, 1 h” value was found to be 4.5% and the “% Separation, 24 h” value is listed as 5.7%. In addition, in data set [3] (1000 ppm water), the “% Separation, 1 h” value stood at 3% and the “% Separation, 24 h” value came out at 4%. In data set [4] (surfactant level in EP 0.50%), the pre-emulsion stability result was “stable”.

As to “5 Mole Ethoxylated C10 Alcohol, Sodium Sulfate [A10-12]”, the “Emulsion stability, mL separation, 1 h” value in data set [2] (setting [5]), in data set [2] (Anionic test sample) and in data set [2] (Nonionic test sample) was 0 mL in each case. The “Emulsion stability, mL separation, 24 h” value in data set [2] (setting [5]), in data set [2] (Anionic test sample) and in data set [2] (Nonionic test sample) was 0 mL each time. Moreover, the “% Separation, 1 h” value in data set [3] (34 ppm water) is reported as 3.6%; in data set [3] (1000 ppm water) it was 3.4%. Besides, the entries for the “% Separation, 24 h” value in data set [3] (34 ppm water) and in data set [3] (1000 ppm water) were 4% and 4.3%, respectively.
